Experimental data: PMC8307317, “Point-Substitution of Phenylalanine Residues of 26RFa Neuropeptide: A Structure-Activity Relationship Study” (Molecules, 2021)
Where two headings read alike, the source gives them in different places. Positions of bridges follow the written chain, without caps; N, C: chain ends. Non-standard residues stand in square brackets, D forms with d. Residues, ends and D or L forms follow the SMILES beside them. ξ: configuration not given here. *: point of attachment. Phe(4-tBu) = CC(C)(C)c1ccc(C[C@H](N)C(=O)O)cc1; Oic = O=C(O)[C@@H]1C[C@@H]2CCCC[C@@H]2N1; Phe(4-Cl) = N[C@@H](Cc1ccc(Cl)cc1)C(=O)O; X7 = O=C(C(c1ccc(C(F)(F)F)cc1)N1CCNCC1)*; X9 = NC(=O)C[C@H](O)[C@H](Cc1ccccc1)N*; 2Nal = N[C@@H](Cc1ccc2ccccc2c1)C(=O)O; X3 = O=C(C(c1cccc(F)c1)N1CCNCC1)*; X6 = O=C(C(c1ccc(F)cc1)N1CCNCC1)*; NMeF = CN[C@@H](Cc1ccccc1)C(=O)O; Tic = O=C(O)[C@@H]1Cc2ccccc2CN1; dTic = O=C(O)[C@H]1Cc2ccccc2CN1; X2 = O=C(C(c1ccccc1)N1CCNCC1)*; ξPhg = NC(C(=O)O)c1ccccc1; Nphe = O=C(O)CNCc1ccccc1

Tests used:
[1] = target: T1, human QRFPR (hQRFPR) (Homo sapiens, UniProt Q96P65); experiment: Calcium mobilization assay, agonist mode ([Ca2+]i in Gα16-hQRFPR-transfected CHO cells); format: cell-based
T1 construct: expressed in transfected cells; host or cells: CHO cells, stably transfected with hQRFPR (G418 selection) and Gα16 (hygromycin B selection)
T1 sequence (Q96P65 1-431): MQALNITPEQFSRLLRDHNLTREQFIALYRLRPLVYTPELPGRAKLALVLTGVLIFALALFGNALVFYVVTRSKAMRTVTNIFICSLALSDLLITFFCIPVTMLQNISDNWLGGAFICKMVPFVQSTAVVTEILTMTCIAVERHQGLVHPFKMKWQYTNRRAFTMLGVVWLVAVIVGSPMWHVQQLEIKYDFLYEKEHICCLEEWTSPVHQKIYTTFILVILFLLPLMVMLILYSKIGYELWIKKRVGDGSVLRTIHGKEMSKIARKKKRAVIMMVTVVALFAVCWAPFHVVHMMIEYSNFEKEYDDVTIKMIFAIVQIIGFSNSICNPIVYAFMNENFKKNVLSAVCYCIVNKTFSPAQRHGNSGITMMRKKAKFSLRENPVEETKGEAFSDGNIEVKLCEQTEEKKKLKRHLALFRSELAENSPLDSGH
Method: (§1) Stably transfected hQRFPR CHO cells were obtained as previously described. The cells were maintained in F-12 nutrient mixture (Ham-F12) medium supplemented with 10% fetal bovine serum, 2 mM glutamine, and penicillin-streptomycin. Expression of Gα16 cells was maintained using selection antibiotic hygromycin B (200 µg/mL) and that of hQRFPR using geneticin G418 (500 µg/mL) (Life Technologies, Villebon-Sur-Yvette, France) in a humidified 5% CO2 atmosphere at 37 °C.
(§2) Changes in intracellular Ca^2+ concentrations induced by 26RFa(20–26) analogs in CHO-Gα16-hQRFPR-transfected cells were measured on a benchtop scanning fluorometer Flexstation III (Molecular Devices, Sunnyvale, CA, USA) as previously described. Briefly, 96-well assay black plates with clear bottoms (Corning international, Avon, France) were seeded at a density of 40,000 cells/well 24 h prior to assay. For profiling agonistic experiments, cells were loaded with 2 µM Fluo-4 acetoxymethyl ester (AM) (Invitrogen) for 1 h in the presence of 0.01% pluronic acid, washed thrice, and incubated for 30 min with standard HBSS containing 2.5 mM probenecid and 5 mM HEPES. Compounds to be tested were added at final concentrations ranging from 10^−11 to 10^−5 M in HBSS, and the fluorescence intensity was measured during 3 min. To evaluate the antagonistic potency of the test compounds, cells were incubated with each compound over 15 min after Fluo-4 AM loading. Then, during fluorescence recording, a pulse of 26RFa was administered at a final concentration of 10^−7 M. After subtraction of the mean fluorescence background, the baseline was normalized to 100%. Fluorescence peak values were determined for each concentration of compound.
(§3) Calcium experiments were performed in triplicate, and data, expressed as mean ± SEM of at least three distinct experiments, were analyzed with the Prism 8.0 software (Graphpad Software, San Diego, CA, USA). EC50 and the IC50 values were determined from concentration–response curves using a sigmoidal dose–response fit with variable slope from at least three independent determinations. Differences between 26RFa(20–26) and analog activities were analyzed by the Mann–Whitney test. p values < 0.05 were considered significant.

[2] = target: T1, human QRFPR (hQRFPR); experiment: Calcium mobilization assay, antagonist mode (26RFa-evoked [Ca2+]i increase in Gα16-hQRFPR-transfected CHO cells); format: cell-based; conditions: for inhibition at 10 µM: CHO, read-out: Imax (inhibition of 26RFa-evoked response); for inhibition at 10 µM / Imax (inhibition of 26RFa-evoked response): Inhibition at a maximal concentration of 10^−5 M, 10^−7 M 26RFa
Method: as §1, §2, §3

[3] = [Ca2+]i mobilization in Gα16-hQRFPR-transfected CHO cells, mean of at least three independent experiments performed in triplicate, read-out: EC50
[4] = single prototype curve, triplicate, 10^−7 M 26RFa-evoked response, read-out: IC50 calculated from representative dose–inhibition curves (Figure 4)
[5] = single prototype curve, triplicate, basal [Ca2+]i mobilization, read-out: EC50 calculated from representative dose–response curves (Figure 3)

Row | SMILES | EC50 [1, 3] | other results
1 | CC(C)(C)c1ccc(C[C@H](NC(=O)CNC(=O)CN)C(=O)N[C@@H](CO)C(=O)N[C@@H](Cc2ccccc2)C(=O)N[C@@H](CCCNC(=N)N)C(=O)N[C@@H](Cc2ccccc2)C(N)=O)cc1 [Compound 11, [ptBuPhe^22]26RFa(20–26)] (H-GG[Phe(4-tBu)]SFRF-NH2) | > 10 µM | inhibition at 10 µM [2]: 45 to 46%; Imax (inhibition of 26RFa-evoked response) [2]: 45%; IC50 ([2]; inhibition of 10^−7 M 26RFa-evoked [Ca2+]i response, compounds inactive as agonists, ND = not detectable, read-out: IC50): 6.22 µM; IC50 [2, 4]: 4.49 µM
2 | N=C(N)NCCC[C@H](NC(=O)[C@H](Cc1ccccc1)NC(=O)[C@H](CO)NC(=O)C(c1ccc(F)cc1)N1CCNCC1)C(=O)N[C@@H](Cc1ccccc1)C(N)=O (stereo partly drawn) [Compound 51, [Cmpi(4-FPhg)^22]26RFa(22–26)] (X6-SFRF-NH2) | 4.05 µM | 
3 | N=C(N)NCCC[C@H](NC(=O)[C@H](Cc1ccccc1)NC(=O)[C@H](CO)NC(=O)[C@H](Cc1ccccc1)NC(=O)CNC(=O)CN)C(=O)N1Cc2ccccc2C[C@@H]1C(N)=O [Compound 42, [DTic^26]26RFa(20–26)] (H-GGFSFR[dTic]-NH2) | > 10 µM | 
4 | N=C(N)NCCC[C@H](NC(=O)C(NC(=O)[C@H](CO)NC(=O)[C@H](Cc1ccccc1)NC(=O)CNC(=O)CN)c1ccccc1)C(=O)N[C@@H](Cc1ccccc1)C(N)=O (stereo partly drawn) [Compound 22, [Phg^24]26RFa(20–26)] (H-GGFS[ξPhg]RF-NH2) | > 10 µM | 
5 | N=C(N)NCCC[C@H](NC(=O)[C@H](Cc1ccccc1)NC(=O)[C@H](CO)NC(=O)[C@H](Cc1ccccc1)NC(=O)CNC(=O)CN)C(=O)N(CC(N)=O)Cc1ccccc1 [Compound 33, [NPhe^26]26RFa(20–26)] (H-GGFSFR[Nphe]-NH2) | > 10 µM | 
6 | N=C(N)NCCC[C@H](NC(=O)[C@H](Cc1ccccc1)NC(=O)[C@H](CO)NC(=O)C(c1ccc(C(F)(F)F)cc1)N1CCNCC1)C(=O)N[C@@H](Cc1ccccc1)C(N)=O (stereo partly drawn) [Compound 58, [Cmpi(4-TfmPhg)^22]26RFa(22–26)] (X7-SFRF-NH2) | > 10 µM | 
7 | CC(C)(C)c1ccc(C[C@H](NC(=O)[C@H](CCCNC(=N)N)NC(=O)[C@H](Cc2ccccc2)NC(=O)[C@H](CO)NC(=O)[C@H](Cc2ccccc2)NC(=O)CNC(=O)CN)C(N)=O)cc1 [Compound 13, [ptBuPhe^26]26RFa(20–26)] (H-GGFSFR[Phe(4-tBu)]-NH2) | 1.04 µM | EC50 [1, 5]: 1.08 µM
8 | N=C(N)NCCC[C@H](NC(=O)[C@H](Cc1ccccc1)NC(=O)[C@H](CO)NC(=O)CN(Cc1ccccc1)C(=O)CNC(=O)CN)C(=O)N[C@@H](Cc1ccccc1)C(N)=O [Compound 31, [NPhe^22]26RFa(20–26)] (H-GG[Nphe]SFRF-NH2) | 0.578 µM | EC50 [1, 5]: 0.149 µM
9 | N=C(N)NCCC[C@H](NC(=O)[C@H](Cc1ccccc1)NC(=O)[C@H](CO)NC(=O)C(c1cccc(F)c1)N1CCNCC1)C(=O)N[C@@H](Cc1ccccc1)C(N)=O (stereo partly drawn) [Compound 53, [Cmpi(3-FPhg)^22]26RFa(22–26)] (X3-SFRF-NH2) | 3.56 µM | 
10 | CN(C(=O)[C@H](CCCNC(=N)N)NC(=O)[C@H](Cc1ccccc1)NC(=O)[C@H](CO)NC(=O)[C@H](Cc1ccccc1)NC(=O)CNC(=O)CN)[C@@H](Cc1ccccc1)C(N)=O [Compound 27, [NMePhe^26]26RFa(20–26)] (H-GGFSFR[NMeF]-NH2) | > 10 µM | 
11 | N=C(N)NCCC[C@H](NC(=O)[C@H](Cc1ccccc1)NC(=O)[C@H](CO)NC(=O)[C@H](Cc1ccccc1)NC(=O)CNC(=O)CN)C(=O)N[C@H](Cc1c[nH]c2ccccc12)C(N)=O [Compound 39, [DTrp^26]26RFa(20–26)] (H-GGFSFR[dW]-NH2) |  | inhibition at 10 µM [2]: 45 to 46%; Imax (inhibition of 26RFa-evoked response) [2]: 46%; IC50 [2, 4]: 5.84 µM
12 | CC(C)(C)c1ccc(C[C@H](NC(=O)[C@H](CO)NC(=O)[C@H](Cc2ccccc2)NC(=O)CNC(=O)CN)C(=O)N[C@@H](CCCNC(=N)N)C(=O)N[C@@H](Cc2ccccc2)C(N)=O)cc1 [Compound 12, [ptBuPhe^24]26RFa(20–26)] (H-GGFS[Phe(4-tBu)]RF-NH2) | > 10 µM | 
13 | N=C(N)NCCC[C@@H]1NC(=O)[C@@H](NC(=O)[C@H](CO)NC(=O)[C@H](Cc2ccccc2)NC(=O)CNC(=O)CN)CSSC[C@@H](C(N)=O)NC1=O [Compound 48, [Cys^24,26]26RFa(20–26)] (H-GGFSCRC-NH2; disulfide 5-7) | > 10 µM | 
14 | N=C(N)NCCC[C@H](NC(=O)[C@@H]1Cc2ccccc2CN1C(=O)[C@H](CO)NC(=O)[C@H](Cc1ccccc1)NC(=O)CNC(=O)CN)C(=O)N[C@@H](Cc1ccccc1)C(N)=O [Compound 29, [Tic^24]26RFa(20–26)] (H-GGFS[Tic]RF-NH2) | > 10 µM | 
15 | N=C(N)NCCC[C@H](NC(=O)[C@H](Cc1ccccc1)NC(=O)[C@H](CO)NC(=O)[C@H](Cc1ccccc1)NC(=O)CNC(=O)CN)C(=O)N1[C@H](C(N)=O)C[C@@H]2CCCC[C@@H]21 [Compound 45, [Oic^26]26RFa(20–26)] (H-GGFSFR[Oic]-NH2) | > 10 µM | 
16 | N=C(N)NCCC[C@H](NC(=O)[C@H](Cc1ccccc1)NC(=O)[C@H](CO)NC(=O)[C@H](Cc1ccccc1)NC(=O)CNC(=O)CN)C(=O)N[C@@H](Cc1ccc(Cl)cc1)C(N)=O [Compound 16, [Pcp^26]26RFa(20–26)] (H-GGFSFR[Phe(4-Cl)]-NH2) | 0.457 µM | EC50 [1, 5]: 0.416 µM
17 | N=C(N)NCCC[C@H](NC(=O)[C@H](Cc1ccccc1)NC(=O)[C@H](CO)NC(=O)[C@H](Cc1ccccc1)NC(=O)CNC(=O)CN)C(=O)N[C@@H](Cc1ccc2ccccc2c1)C(N)=O [Compound 7, [2Nal^26]26RFa(20–26)] (H-GGFSFR[2Nal]-NH2) | 3.79 µM | 
18 | N=C(N)NCCC[C@H](NC(=O)[C@@H]1CSSC[C@H](NC(=O)CNC(=O)CN)C(=O)N[C@@H](CO)C(=O)N1)C(=O)N[C@@H](Cc1ccccc1)C(N)=O [Compound 46, [Cys^22,24]26RFa(20–26)] (H-GGCSCRF-NH2; disulfide 3-5) | > 10 µM | 
19 | N=C(N)NCCC[C@H](NC(=O)[C@H](Cc1ccccc1)NC(=O)[C@H](CO)NC(=O)[C@H](Cc1ccccc1)NC(=O)CNC(=O)CN)C(=O)NC(C(N)=O)c1ccccc1 (stereo partly drawn) [Compound 23, [Phg^26]26RFa(20–26)] (H-GGFSFR[ξPhg]-NH2) | > 10 µM | 
20 | N=C(N)NCCC[C@H](NC(=O)[C@@H]1C[C@@H]2CCCC[C@@H]2N1C(=O)[C@H](CO)NC(=O)[C@H](Cc1ccccc1)NC(=O)CNC(=O)CN)C(=O)N[C@@H](Cc1ccccc1)C(N)=O [Compound 44, [Oic^24]26RFa(20–26)] (H-GGFS[Oic]RF-NH2) | > 10 µM | 
21 | N=C(N)NCCC[C@H](NC(=O)[C@H](Cc1ccccc1)NC(=O)[C@H](CO)NC(=O)[C@@H]1C[C@@H]2CCCC[C@@H]2N1C(=O)CNC(=O)CN)C(=O)N[C@@H](Cc1ccccc1)C(N)=O [Compound 43, [Oic^22]26RFa(20–26)] (H-GG[Oic]SFRF-NH2) | > 10 µM | 
22 | N=C(N)NCCC[C@H](NC(=O)[C@H](Cc1ccccc1)NC(=O)[C@H](CO)NC(=O)C(c1ccccc1)N1CCNCC1)C(=O)N[C@@H](Cc1ccccc1)C(N)=O (stereo partly drawn) [Compound 50, [Cmpi(Phg)^22]26RFa(22–26)] (X2-SFRF-NH2) | > 10 µM | 
23 | N=C(N)NCCC[C@H](NC(=O)[C@H](Cc1ccccc1)NC(=O)[C@H](CO)NC(=O)[C@H](Cc1ccccc1)NC(=O)CNC(=O)CN)C(=O)N[C@@H](Cc1ccccc1)[C@@H](O)CC(N)=O [Compound 36, [AHPPA^26]26RFa(20–26)] (H-GGFSFR-X9) | > 10 µM | 
24 | N=C(N)NCCC[C@H](NC(=O)[C@H](Cc1ccccc1)NC(=O)[C@H](CO)NC(=O)[C@H]1Cc2ccccc2CN1C(=O)CNC(=O)CN)C(=O)N[C@@H](Cc1ccccc1)C(N)=O [Compound 40, [DTic^22]26RFa(20–26)] (H-GG[dTic]SFRF-NH2) | 4.99 µM | 
